Experimental data from US8598122B2, “Antagonistic peptides for frizzled-1 and frizzled-2” (Universiteit Maastricht, priority 2009, dated 2013).
Where a SMILES comes first, the peptide text is derived from it.

Key:
[1] = target: T1, human Fzd-1 (Homo sapiens, UniProt Q9UP38); experiment: Antagonism of Wnt3a activation of human Fzd-1 (data not shown); assay type: cell-based
T1 construct: expressed in transfected cells
Source text: (§1) In FIG. 3, Panel E, the efficacy of UM206 to block the Wnt3a-induced activation of luciferase activity in HEK293 superTOPflash cells transfected with different Fzds is shown.

[2] = target: T2, human Fzd-2 (Homo sapiens, UniProt Q14332); experiment: Antagonism of Wnt3a activation of human Fzd-2 (data not shown); assay type: cell-based
T2 construct: expressed in transfected cells
T2 sequence (Q14332 24-565): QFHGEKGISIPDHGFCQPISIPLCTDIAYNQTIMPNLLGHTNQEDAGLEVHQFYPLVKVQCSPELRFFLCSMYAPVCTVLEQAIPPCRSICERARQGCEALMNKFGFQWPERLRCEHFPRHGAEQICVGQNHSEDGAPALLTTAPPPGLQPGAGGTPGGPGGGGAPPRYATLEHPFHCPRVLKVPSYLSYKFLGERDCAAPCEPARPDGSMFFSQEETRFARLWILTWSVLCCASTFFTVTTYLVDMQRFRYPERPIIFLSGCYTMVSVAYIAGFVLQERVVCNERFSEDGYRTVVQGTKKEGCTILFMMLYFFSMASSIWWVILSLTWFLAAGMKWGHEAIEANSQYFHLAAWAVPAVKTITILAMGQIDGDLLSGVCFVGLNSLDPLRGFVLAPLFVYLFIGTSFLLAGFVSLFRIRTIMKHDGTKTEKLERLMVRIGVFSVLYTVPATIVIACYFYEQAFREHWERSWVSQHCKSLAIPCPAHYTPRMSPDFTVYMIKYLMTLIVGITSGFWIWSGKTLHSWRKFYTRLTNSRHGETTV
Source text: as §1

[3] = tested on: canonical Wnt/Fzd-1/2 signaling; experiment: TOPflash experiments in CHO and COS-7 cells overexpressing rFzd-1 or -2; assay type: cell-based
Source text: (§2) Three areas of high homology that contained two cysteines are underlined (UM207), (UM208) and (UM206). In FIGS. 9B through 9D, the inhibitory effect of these three peptides on Wnt3a-induced luciferase activity in HEK293-superTOPflash is shown. […] Again, the peptides by themselves had no effect on the luciferase activity.
For the luciferase experiments not in HEK cells, the cells were additionally transfected with a TOPflash construct, eight TCF/LEF binding sites cloned into the pTA-Luc vector. Luciferase activity was measured using luciferase assay system (Promega, Madison Wis., USA).

[4] = tested on: frizzled receptor; experiment: Activity on the frizzled receptor (activity assay of Example 1), result in words; assay type: cell-based
Method: (§3) Human embryonic kidney (HEK) cells were used for screening. These cells have a luciferase construct stably transfected into the genome (see FIG. 2A), such that when the frizzled receptor is activated and β-catenin is increased, the luciferase is activated by transcription and light can be measured.
The peptides were tested by transfecting the frizzled-1 or the frizzled-2 receptor and addition of UM206(S-S) to the cell culture. For testing antagonistic activity, UM206 was added and the natural ligand Wnt3a was added, which is a natural stimulus for the canonical pathway.
Analogues of UM206 were prepared by solid phase peptide synthesis. Each amino acid residue was sequentially replaced by an alanine residue and antagonistic activity of the analogue was tested as described in the activity assay of Example 1. […] Titles indicate which amino acid residue was substituted by an alanine residue.

[5] = tested on: Wnt/Fzd signal transduction cascade; experiment: Luciferase activity in HEK293-superTOPflash cells (Wnt/Fzd signal transduction cascade); assay type: cell-based, human; conditions: without Wnt3a
Source text: as §3, §2

[6] = tested on: C-FIT cells; experiment: Differentiation assay (α-SMA) with C-FIT cells; assay type: cell-based, rat
Source text: For this assay, we used the same C-FIT cells as for the migration assay to study a second component of wound healing, namely, differentiation of fibroblasts into myofibroblasts. When wound healing starts, cells called fibroblasts migrate into the scar. These cells have no contractile properties; however, they can differentiate into myofibroblasts, which can actively contract. To study which signals influence the transition from fibroblast into myofibroblasts, we treated the C-FIT cells and harvested them for mRNA isolation. Next, we tested them for the presence of specific markers for myofibroblasts by reverse transcription of the mRNA and subsequent quantitative PCR analysis, which are absent in fibroblasts. One of those markers is α-smooth muscle actin, which makes the cells contract.
RNA was isolated using the Trizol method (Invitrogen). For the RT-PCR, the RNA was transcribed to cDNA with iscript™ cDNA synthesis kit (Bio-Rad, Hercules Calif., USA), Syber green (Eurogentec, Ghent, Belgium) was used for the detection of cDNA levels and cyclophilin served as the house keeping gene. In Supplementary methods panel 5, the primer sequences are shown.

[7] = tested on: 129S6 mice; experiment: Infarct rupture in 129S6 mice; assay type: in vivo; conditions: infarct rupture frequency ˜60%, unpublished observations
Source text: Because of the lack of pharmacological tools to intervene in Wnt/Fzd signaling in vivo, only genetic interventions have been reported so far in studies on the role of Wnt signaling in infarct healing. Barandon et al. were the first to show a beneficial effect of overexpression on infarct healing of FrzA, a bovine homologue of soluble frizzled-related protein-1 (sFRP1). They observed a decreased infarct size with elevated numbers of myofibroblasts and increased angiogenesis in the infarcted FrzA transgenic mice (Barandon et al., 2003), which could be confirmed in the present study using an Fzd-1 and -2 antagonist. […] In the mean time, the beneficial effects of sFRP overexpression on infarct healing have been confirmed by Kobayashi et al. (Kobayashi et al., 2009). Taken together, these reports support the observations of the present study and point to a beneficial effect of inhibiting Wnt/Fzd signaling on the wound-healing process after MI.

[8] = mouse, in vivo
Method: (§4) UM206 was injected into the femoral artery of Swiss mice (concentration of 10^−9 M). Blood was sampled at different time points in the femoral vein. On the y-axis, the concentration of UM206 in the plasma is shown. This is determined with HPLC and the area under the peak is calculated and shown on the y-axis. All values were corrected for the baseline value.
(§5) In order to determine the pharmacokinetic properties of UM206, we injected 15 ng of the compound into the tail vein of mice and monitored the concentration in the blood at different time points.
(§6) Male Swiss mice were used (10-12 weeks of age, Charles River, Maastricht, The Netherlands).
(§7) Blood samples were collected from the animals for the pharmacokinetics and after 14 to 35 days treatment, to determine the concentration of UM206. Blood was centrifuged and the plasma was treated with 1% TFA.

[9] = Pharmacokinetics assay in mice
Method: as §4, §5, §6, §7

T1 sequence (Q9UP38 70-647): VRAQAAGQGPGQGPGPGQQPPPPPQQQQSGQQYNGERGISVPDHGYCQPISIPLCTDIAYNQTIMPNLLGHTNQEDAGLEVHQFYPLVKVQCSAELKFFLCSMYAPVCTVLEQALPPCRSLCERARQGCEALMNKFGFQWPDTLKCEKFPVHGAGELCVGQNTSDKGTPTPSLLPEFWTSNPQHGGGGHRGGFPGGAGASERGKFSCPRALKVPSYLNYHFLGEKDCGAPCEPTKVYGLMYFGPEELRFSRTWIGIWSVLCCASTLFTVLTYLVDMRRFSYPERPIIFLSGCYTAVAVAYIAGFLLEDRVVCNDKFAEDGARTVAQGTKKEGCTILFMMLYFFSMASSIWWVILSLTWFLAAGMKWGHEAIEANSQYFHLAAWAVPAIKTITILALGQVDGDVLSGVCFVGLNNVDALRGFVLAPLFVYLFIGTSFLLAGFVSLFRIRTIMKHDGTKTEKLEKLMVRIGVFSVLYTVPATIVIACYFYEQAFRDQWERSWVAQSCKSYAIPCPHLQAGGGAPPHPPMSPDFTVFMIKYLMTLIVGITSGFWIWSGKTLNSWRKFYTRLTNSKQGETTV

In the case of CSCC[C@H](NC(=O)CNC(=O)[C@H](CCC(=O)O)NC(=O)[C@H](CO)NC(=O)[C@@H](NC(=O)[C@H](CCCCN)NC(=O)[C@H](CC(N)=O)NC(=O)[C@H](CS)NC(C)=O)[C@@H](C)O)C(=O)N[C@@H](CC(=O)O)C(=O)NCC(=O)N[C@@H](CS)C(=O)N[C@@H](CCC(=O)O)C(=O)N[C@@H](CC(C)C)C(N)=O [UM206, Ac-Cys-Asn-Lys-Thr-Ser-Glu-Gly-Met-Asp-Gly-Cys-Glu-Leu-NH2] (Ac-CNKTSEGMDGCEL-NH2), the “Antagonizing activation of human Fzd-1 by Wnt3a” value [1] is reported as “fully effective”, the “Antagonizing activation of human Fzd-2 by Wnt3a” value [2] is reported as “fully effective” and the “Blocking of canonical Wnt/Fzd-1/2 signaling in two other cell lines” value [3] is reported as “selectively block”. For the same compound, the “Activity on the frizzled receptor (in words)” value [4] was “very potent antagonist”, the “IC50 (range in words)” value [4] was “in the nanomolar range” and the “Luciferase activity induced by the peptide by itself” value [5] was “none of the three peptides by itself could induce an increase in luciferase activity”. The “Effect on Wnt3a/5a-induced differentiation (α-SMA levels)” value [6] was “completely blocks this differentiation”, the “number of ruptured infarcts” value [7] was “did not reduce the number of ruptured infarcts” and the “time until steady state is reached” value [8] was ~10 h. The half-life ([9]; 15 ng into the tail vein of mice, HPLC, n=24) was 1.39 h, the half-life ([9]; male, Swiss, mouse, plasma) was ~1.5 h and the half-life ([9]; male, Swiss, mouse, plasma, intravenous, 15 ng) was 1.39 ± 0.0272 h.
